“Also recorded” adds a separate entry of the source.
How the values were obtained:
[1] = test system: T2 cells loaded with pp65495-503; details: mouse, in vivo; cited from earlier work
human PBL = details: cited from earlier work
[2] = test system: JA2.1 T cells infected with vaccinia virus expressing pp65; set-up: species or system HLA A2.1/K^b transgenic mice; details: mouse, in vivo, sc

Row | Sequence | CTL response directed at the pp65495-503 CTL epitope [1] | CTL precursor memory response (human PBL) | recognition of endogenously processed pp65 [2]
1 | NLVPMVATV [pp65495-503] | robust CTL response | stimulates a CTL precursor (CTLp) memory response | 
2 | VSTIVPYIGPALNIAAANLVPMVATV [Tet639V] |  |  | evident; also recorded: more prominent

— patent US20040101534A1 (priority 2002, published 2004)
